According to publication PMC6563099, “Novel Thienopyrimidine Derivative, RP-010, Induces β-Catenin Fragmentation and Is Efficacious against Prostate Cancer Cells” (Cancers, 2019):
Where two headings read alike, the source gives them in different places.

How the values were obtained:
Assay type in all cases: cell-based
PC-3 [1] = test: DAPI staining of nuclear changes, PC-3; settings: 24 and 48 h
Description: The nuclear changes in DU145 and PC-3 cells lines produced by RP-010 (1, 2 and 4 µM) incubation at 24 or 48 h were determined using DAPI staining. The cells were seeded on culture cover glasses in 6-well plates, and allowed to grow overnight. The cells were then incubated with RP-010, for an additional 24 h, at 37 °C. The incubated cells were fixed with 4% paraformaldehyde, followed by permeabilization with 1× PBS/0.3% Triton X-100 for 25 min. Finally, DAPI stain was added, and cells were photographed using the EVOS microscope.

PC-3 [2] = test: MTT cytotoxicity assay, PC-3 prostate cancer cells; settings: MTT assay, means ± SDs of three independent experiments, read-out: IC50 ± SD, Prostate Cancer Cells, PC-3
Description: All the cells were cultured as adherent monolayers in culture flasks, and were used to determine the anti-cancer efficacy of RP-010. DMEM supplemented with 4.5 g of glucose, 10% fetal bovine serum (FBS) and 1% penicillin/streptomycin, was used to augment cell growth. Finally, the cells were incubated and grown in a humidified incubator containing 5% CO2 at 37 °C [50]. […] Cells were obtained from frozen stocks and cell passaging (up to P4) was performed at 80% cell confluency, using PBS and trypsin + 2.2-mM EDTA.
MTT assays were used to determine the cytotoxicity of the RP compounds, to PC cell lines, as previously described.

DU145 = test: Cell cycle analysis (PI, flow cytometry), DU145; settings: vs vehicle
Description: The effect of RP-010 on the cell cycle phases and function was determined using cell cycle analysis with PI staining, followed by flow cytometry. The cells were incubated with either vehicle or RP-010 (0.5, 1 or 2 µM) for 24 h. After incubation overnight, the cells were collected, washed and resuspended as an ice-cold PBS suspension. The DNA was stained with PI for at least 15 min on ice. A FACS Calibur flow cytometer from BD Biosciences (San Jose, CA, USA) was used to determine the distribution of the cells following incubation with vehicle or RP-010. Finally, the data were viewed and analysed using FlowJo v10.2 software from FlowJo LLC (Ashland, OR, USA).

Question: `COc1ccc(-c2nc3sc4c(c3c(=O)[nH]2)CCCC4)cc1` [RP10] was tested. Which “Nuclear morphology (DAPI)” value (PC-3 [1]; 1 µM) did it give?
Answer: The value was “significant increase in multinucleated cells”.

Question: And the “Nuclear morphology (DAPI)” value (PC-3 [1]; 2 or 4 μM)?
Answer: The value was “apoptosis”.

Question: And the IC50 (PC-3 [2]; listed as RP-010)?
Answer: The IC50 was less than 1000 nM.

Question: What about the IC50 (PC-3 [2]) of the same molecule?
Answer: Its IC50 is 300 ± 100 nM.

Question: And the “Cell cycle distribution, G1 phase” value (DU145; 0.5, 1 or 2 µM)?
Answer: Its value is “significant shift from G1 phase”.

Question: And the “Cell cycle distribution, G2 phase” value (DU145; 1 or 2 µM, p < 0.05)?
Answer: The value was “significantly accumulated in the G2 phase”.
